Measurements reported in the supplement of paper PMC10307832.

Experiments:
Assay in all cases: relative viability (nuclei count vs DMSO), 5 days (fraction); higher = more cells survive
[1] = compound: CN1CCN(CC1)C2=CC(=C(C=C2)NC3=NC(=C(S3)C(=O)C4=C(C=CC=C4Cl)Cl)N)OC [XMD14-99] + Nc1nc2[nH]cc(CCc3ccc(C(=O)N[C@@H](CCC(=O)O)C(=O)O)cc3)c2c(=O)[nH]1 [Pemetrexed] (partner 0.2 µM)
Method in brief: (§1)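 A single step with final 0.05% Triton X-100, 1% formaldehyde and 1 ug/ml Hoechst fixed the cells and stained nuclei 5 days after treatment. Lung cancer cell lines in 1536-well plates had been treated by pin tool the day after seeding with one drug alone or a fixed anchor-drug dose plus five library-drug doses (not always all listed) in √10 steps, and nuclei were counted on 4× images. Relative viability is the ratio of nuclei in treated wells to nuclei in vehicle wells, taken as the median of duplicate plates.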

[2] = compound: CN1CCN(CC1)C2=CC(=C(C=C2)NC3=NC(=C(S3)C(=O)C4=C(C=CC=C4Cl)Cl)N)OC [XMD14-99] + C[C@@H](Oc1cc(-c2cnn(C3CCNCC3)c2)cnc1N)c1c(Cl)ccc(F)c1Cl [Crizotinib] (partner 1 µM)
Method in brief: as §1

[3] = compound: N[C@@H]1CCCN(c2c(/C=C3\SC(=O)NC3=O)cccc2-c2ccccc2)C1 [AZD1208] + COc1cccc2cc(-c3nc([C@H]4CC[C@H](C(=O)O)CC4)n4ncnc(N)c34)[nH]c12 [OSI-027] (partner 0.5 µM)
Method in brief: as §1

[4] = compound: CN1CCN(CC1)C2=CC(=C(C=C2)NC3=NC(=C(S3)C(=O)C4=C(C=CC=C4Cl)Cl)N)OC [XMD14-99] + CCNC(=O)c1noc(-c2cc(C(C)C)c(O)cc2O)c1-c1ccc(CN2CCOCC2)cc1 [Luminespib] (partner 0.01 µM)
Method in brief: as §1

| Cell Line | relative viability ([1]; first compound 0.08 µM) | relative viability ([1]; first compound 0.8 µM) | relative viability ([1]; first compound 2.53 µM) | relative viability ([1]; first compound 8 µM) | relative viability ([2]; first compound 0.08 µM) | relative viability ([2]; first compound 0.8 µM) | relative viability ([2]; first compound 2.53 µM) | relative viability ([2]; first compound 8 µM) | relative viability ([3]; first compound 0.08 µM) | relative viability ([3]; first compound 0.253 µM) | relative viability ([3]; first compound 0.8 µM) | relative viability ([3]; first compound 2.53 µM) | relative viability ([3]; first compound 8 µM) | relative viability ([4]; first compound 0.08 µM) | relative viability ([4]; first compound 0.8 µM) | relative viability ([4]; first compound 2.53 µM) | relative viability ([4]; first compound 8 µM) |
| --- | --- | --- | --- | --- | --- | --- | --- | --- | --- | --- | --- | --- | --- | --- | --- | --- | --- |
| LXF-289 | 0.692 | 0.862 | 0.85 | 0.781 | 0.814 | 0.802 | 0.814 | 0.712 | 0.821 | 0.814 | 0.602 | 0.647 | 0.648 | 0.586 | 0.672 | 0.639 | 0.634 |
| NCI-H23 | 0.687 | 0.783 | 0.745 | 0.494 | 0.45 | 0.447 | 0.461 | 0.351 | 0.576 | 0.705 | 0.523 | 0.37 | 0.382 | 0.199 | 0.247 | 0.214 | 0.202 |
| NCI-H322M | 0.654 | 0.57 | 0.606 | 0.535 | 0.927 | 0.972 | 0.905 | 0.848 | 0.569 | 0.514 | 0.459 | 0.508 | 0.462 | 0.857 | 1.06 | 0.939 | 0.863 |
| NCI-H358 | 0.16 | 0.142 | 0.178 | 0.146 | 0.661 | 0.733 | 0.576 | 0.302 | 0.649 | 0.738 | 0.626 | 0.695 | 0.472 | 0.219 | 0.262 | 0.323 | 0.281 |
| NCI-H441 | 0.257 | 0.289 | 0.235 | 0.254 | 0.596 | 0.797 | 0.661 | 0.494 | 0.518 | 0.535 | 0.396 | 0.493 | 0.352 | 0.351 | 0.352 | 0.311 | 0.276 |
| NCI-H460 | 0.067 | 0.066 | 0.07 | 0.0715 | 0.876 | 0.888 | 0.955 | 0.667 | 0.59 | 0.853 | 0.633 | 0.647 | 0.477 | 0.0305 | 0.037 | 0.0277 | 0.0243 |
| NCI-H520 | 0.624 | 0.625 | 0.596 | 0.501 | 0.734 | 0.694 | 0.724 | 0.648 | 0.207 | 0.258 | 0.189 | 0.179 | 0.188 | 0.191 | 0.219 | 0.217 | 0.223 |
| NCI-H596 | 0.465 | 0.48 | 0.447 | 0.494 | 1.01 | 0.974 | 1.04 | 1.02 | 0.666 | 0.817 | 0.62 | 0.56 | 0.359 | 1.05 | 1.11 | 0.917 | 0.983 |
| NCI-H647 | 0.147 | 0.14 | 0.209 | 0.141 | 0.948 | 0.928 | 1.01 | 0.741 | 0.665 | 0.885 | 0.508 | 0.515 | 0.47 | 0.322 | 0.233 | 0.23 | 0.0995 |
| NCI-H650 | 0.932 | 1.03 | 0.929 | 0.961 | 0.613 | 0.728 | 0.684 | 0.623 | 0.574 | 0.435 | 0.477 | 0.394 | 0.398 | 0.733 | 0.873 | 0.79 | 0.722 |
| NCI-H661 | 0.86 | 0.796 | 0.779 | 0.678 | 0.897 |  | 0.894 | 0.838 | 0.613 | 0.714 | 0.648 | 0.657 | 0.663 | 0.855 | 0.778 | 0.697 | 0.55 |
| NCI-H838 | 0.253 | 0.226 | 0.255 | 0.198 | 0.877 | 0.798 | 0.82 | 0.557 | 0.378 | 0.453 | 0.38 | 0.326 | 0.301 | 0.28 | 0.293 | 0.239 | 0.235 |
| NCI-H1355 | 1.09 | 1.06 | 0.945 | 0.896 | 1.15 | 1.11 | 0.949 | 0.879 | 0.389 | 0.31 | 0.315 | 0.285 | 0.273 | 0.843 | 0.799 | 0.67 | 0.617 |
| NCI-H1437 | 0.303 | 0.313 | 0.307 | 0.27 | 0.843 | 0.905 | 0.822 | 0.684 | 0.821 | 1.07 | 0.837 | 0.774 | 0.764 | 1.12 | 0.992 | 0.949 | 0.862 |
| NCI-H1563 | 0.884 | 0.937 | 0.787 | 0.751 | 0.858 | 0.905 | 0.896 | 0.786 | 0.721 | 0.708 | 0.704 | 0.695 | 0.596 | 0.505 | 0.551 | 0.546 | 0.48 |
| NCI-H1650 | 0.387 | 0.369 | 0.359 | 0.321 | 1 | 0.951 | 1.09 | 0.849 | 0.592 | 0.516 | 0.568 | 0.434 | 0.473 | 0.21 | 0.208 | 0.189 | 0.188 |
| NCI-H1651 | 0.605 | 0.564 | 0.585 | 0.477 | 0.869 | 0.799 | 0.934 | 0.825 | 0.679 | 0.878 | 0.534 | 0.595 | 0.503 | 0.939 | 0.647 | 0.63 | 0.644 |
| NCI-H1666 | 0.853 | 0.857 | 0.781 | 0.764 | 0.926 | 0.899 | 0.779 | 0.575 | 0.779 | 0.829 | 0.682 | 0.826 | 0.775 | 1.05 | 0.936 | 0.949 | 0.88 |
